This is an account of results in US20210161868A1, “ANTI-INFLAMMATORY THERAPY IN ARRHYTHMOGENIC CARDIOMYOPATHY (ACM)” (Beth Israel Deaconess Medical Center, Inc., priority 2018, published 2021).

One experiment relates to ACM mice. Nature of the experiment: Arrhythmias in ACM mice treated with SB216763 (previous unpublished observations). The class given is in vivo.
The subject of experiment [1] is neonatal rat ventricular myocytes (NRVMs) expressing JUP^2157del2. To be noted: NRVMs expressing mutant plakoglobin, previous reports; cited from earlier work.
The subject of another experiment is models of ACM. To be noted: multiple in vitro and in vivo models, human iPSC-cardiac myocytes; cited from earlier work.

Entries after “also recorded” stand apart in the source; their conditions may differ.

As for `Cn1cc(C2=C(c3ccc(Cl)cc3Cl)C(=O)NC2=O)c2ccccc21` [SB216763], the “time to return of arrhythmias after cessation of treatment” value in the experiment with ACM mice (ACM mice) is not above 48 h. Besides, the “time to cessation of arrhythmias” value in the experiment with ACM mice (ACM mice under treatment) was not above 24 h. In experiment [1], the “in vitro ACM features (protein redistribution, apoptosis, cytokines)” value is recorded as “blocked; also recorded: normalized”. Also, in the experiment on models of ACM, the “full ACM disease phenotype” value is “prevent and/or reverse”.
